Measured values taken from patent publication US20240254138A1, “TRICYCLIC PYRIMIDINES AS CYCLIN-DEPENDENT KINASE 7 (CDK7) INHIBITORS” (JANSSEN PHARMACEUTICA NV, priority 2021, published 2024).
Read-outs that look alike come from different tables or passages of the source.

How the values were obtained:
[1] = tested on: RNA Polymerase II Serine 5 phosphorylation in A549 cells overexpressing CDK7-mutant (C312S); experiment: Imaging-based cellular RNA PolII Ser5 phosphorylation assay in A549 cells overexpressing CDK7-mutant (C312S); format: cell-based, human; details: RNA PolII Ser5 phosphorylation, averaged over all measurements; for CDK7_A549 mutant hCDK7(pIC50): A549 cells overexpressing CDK7-mutant (C312S); for IC50: Homo sapiens, A549, A549 cells overexpressing CDK7-mutant (C312S), read-out: CDK7_A549 mutant hCDK7(pIC50) (converted)
Procedure, shortened: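 A549 cells overexpressing CDK7 C312S (with endogenous wild-type CDK7) were treated with compound for 3 h at 37 °C in 1% FBS medium. Phospho-Rpb1 CTD Ser5 was immunostained after fixation and imaged. IC50 came from curve fit of % control, normalised to DMSO and 10 μM reference-compound controls.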

[2] = tested on: RNA Polymerase II Serine 5 phosphorylation (Rpb1 CTD, downstream substrate of CDK7) in A549 cells; experiment: Imaging-based cellular RNA PolII Ser5 phosphorylation assay in A549 cells; format: cell-based, human; details: wild-type CDK7, RNA PolII Ser5 phosphorylation, averaged over all measurements; for CDK7_A549 Wild-type CDK7 (pIC50): A549 cells; for IC50: Homo sapiens, A549, A549 cells, read-out: CDK7_A549 Wild-type CDK7 (pIC50) (converted)
Procedure, shortened: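 A549 cells, seeded 1000/well in DMEM with 1% FBS and cultured 20 h, were treated with compound for 3 h at 37 °C. Ser5-phospho-Rpb1 CTD detected by immunofluorescence imaging after fixation and methanol permeabilization; IC50 from curve fit normalized to DMSO and 10 μM reference-compound controls.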

[3] = target: CDK7/cyclinH/MAT1 trimeric complex (Homo sapiens, UniProt P50613); experiment: In vitro CDK7 assay, potency of irreversible covalent inhibitors (kinact/KI), coupled PK/LDH ADP readout at 340 nm; details: for kinact: read-out: CDK7 (20 nM enz.) (kinact, s^−1), 20 nM enzyme; for Ki: CDK7 (20 nM enz.) (KI, μM)
[4] = read-out: CDK7 (20 nM enz.) (kinact/KI, M^−1*s^−1), 20 nM enzyme
[5] = read-out: CDK7 (20 nM enz.) (kobs/[I], M^−1*s^−1), 20 nM enzyme

Chain of CDK7/cyclinH/MAT1 trimeric complex (P50613 whole entry): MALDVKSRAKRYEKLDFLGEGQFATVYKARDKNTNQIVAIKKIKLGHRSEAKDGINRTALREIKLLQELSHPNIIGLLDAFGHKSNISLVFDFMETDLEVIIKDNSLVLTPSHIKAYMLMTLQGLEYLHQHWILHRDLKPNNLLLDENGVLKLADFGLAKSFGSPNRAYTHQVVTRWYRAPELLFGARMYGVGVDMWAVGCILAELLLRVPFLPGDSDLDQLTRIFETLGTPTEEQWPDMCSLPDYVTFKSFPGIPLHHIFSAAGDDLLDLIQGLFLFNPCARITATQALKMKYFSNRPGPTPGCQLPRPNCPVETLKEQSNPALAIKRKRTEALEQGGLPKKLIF
Chain of CDK7/cyclinH/MAT1 trimeric complex (P51946 whole entry partner): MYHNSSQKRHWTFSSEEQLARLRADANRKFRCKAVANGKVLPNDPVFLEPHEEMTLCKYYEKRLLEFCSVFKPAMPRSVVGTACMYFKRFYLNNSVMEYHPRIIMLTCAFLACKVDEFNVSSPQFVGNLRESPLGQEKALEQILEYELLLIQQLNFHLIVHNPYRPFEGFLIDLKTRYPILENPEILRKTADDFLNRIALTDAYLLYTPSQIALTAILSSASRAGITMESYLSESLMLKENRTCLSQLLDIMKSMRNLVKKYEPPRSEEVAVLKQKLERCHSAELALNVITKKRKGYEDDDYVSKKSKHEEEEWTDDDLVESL
Chain of CDK7/cyclinH/MAT1 trimeric complex (P51948 whole entry partner): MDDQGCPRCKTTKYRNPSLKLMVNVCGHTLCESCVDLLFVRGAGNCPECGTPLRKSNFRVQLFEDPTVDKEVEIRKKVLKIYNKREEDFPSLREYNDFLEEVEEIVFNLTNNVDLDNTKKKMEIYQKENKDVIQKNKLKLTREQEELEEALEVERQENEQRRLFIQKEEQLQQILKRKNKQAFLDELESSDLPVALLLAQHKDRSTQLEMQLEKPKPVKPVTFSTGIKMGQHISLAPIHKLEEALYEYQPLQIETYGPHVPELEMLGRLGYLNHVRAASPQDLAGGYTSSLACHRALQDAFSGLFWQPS

| SMILES | CDK7_A549 mutant hCDK7(pIC50) [1] | CDK7_A549 Wild-type CDK7 (pIC50) [2] | CDK7 (20 nM enz.) (kinact/KI, M^−1*s^−1) ([3]; 20 nM enzyme) [M⁻¹ s⁻¹] | kinact [3] [s⁻¹] | IC50 [1] [nM] | IC50 [2] [nM] | Ki ([3]; 20 nM enzyme) [µM] | kinact/KI [3, 4] [M⁻¹ s⁻¹] | CDK7 (20 nM enz.) (kinact, s^−1) ([3]; 20 nM enzyme) [s⁻¹] | kinact/KI [3, 5] [M⁻¹ s⁻¹] | CDK7 (20 nM enz.) (kobs/[I], M^−1*s^−1) ([3]; 20 nM enzyme) [M⁻¹ s⁻¹] |
| --- | --- | --- | --- | --- | --- | --- | --- | --- | --- | --- | --- |
| C=CC(=O)N1CCC(N2CC(c3cc(C)c4c(c3)Nc3nccc(-c5cnn(C)c5)c3CO4)C2)CC1 [Compound 338] | 5.52 | 7.25 | 299.026 | 4.86e-05 |  |  |  |  |  |  |  |
| C=CC(=O)N1CC(N2CC(c3cc4c(c(C#N)n3)OCc3c(C5CCOCC5)ccnc3N4)C2)C1 [Compound 339] |  |  |  | 7.81e-05 | > 10000 | 145 | 0.0746 | 1050 |  |  |  |
| CC#CC(=O)N1CCC(N2CC(c3cc4c(c(C5CC5)n3)OCc3c(N5CCOCC5)ccnc3N4)C2)CC1 [Compound 340] | 5.43 | 7.37 | 507.473 |  |  |  | 0.0486 |  | 2.465e-05 |  |  |
| C=CC(=O)N1CCC(N2CC(c3cc4c(c(C5CC5)n3)OCc3c(N5CCOCC5)ccnc3N4)C2)CC1 [Compound 341] | 5.64 | 7.35 | 655.075 |  |  |  | 0.0443 |  | 2.9e-05 |  |  |
| C=CC(=O)N1CC(N2CCC(c3cc(C#N)c4c(c3)Nc3nccc(N5CCOCC5)c3C(C)O4)CC2)C1 (stereo not shown) [Compound 342] | 5.18 | 7.85 |  |  |  |  |  |  |  | 633 |  |
| CC#CC(=O)N1CCC(N2CC(c3cc4c(c(CCC)n3)OCc3c(N5CCOCC5)ccnc3N4)C2)CC1 [Compound 347] |  |  |  | 2.84e-05 | 5130 | 47.9 | 0.036 | 791 |  |  |  |
| C=CC(=O)N1CCC(N2CC(c3cc4c(c(CCC)n3)OCc3c(N5CCOCC5)ccnc3N4)C2)CC1 [Compound 348] |  |  |  | 5.99e-05 | 3090 | 47.9 | 0.0543 | 1100 |  |  |  |
| C=C(C(=O)N1CCC(N2CC(c3cc4c(c(C)n3)OCc3c(-c5cnn(C)c5)ccnc3N4)C2)CC1)n1cccn1 [Compound 349] |  |  |  | 3.25e-05 | 8320 | 97.7 | 0.0563 | 578 |  |  |  |
| C=CC(=O)N1CC(N2CC(c3cc4c(c(CCC)n3)OCc3c(N5CCOCC5)ccnc3N4)C2)C1 [Compound 350] |  |  |  | 4.4e-05 | 10000 | 81.3 | 0.025 | 1760 |  |  |  |

Next, values leading:

| CDK7_A549 mutant hCDK7(pIC50) [1] | CDK7_A549 Wild-type CDK7 (pIC50) [2] | CDK7 (20 nM enz.) (kinact/KI, M^−1*s^−1) ([3]; 20 nM enzyme) [M⁻¹ s⁻¹] | kinact [3] [s⁻¹] | IC50 [1] [nM] | IC50 [2] [nM] | Ki ([3]; 20 nM enzyme) [µM] | kinact/KI [3, 4] [M⁻¹ s⁻¹] | CDK7 (20 nM enz.) (kinact, s^−1) ([3]; 20 nM enzyme) [s⁻¹] | kinact/KI [3, 5] [M⁻¹ s⁻¹] | CDK7 (20 nM enz.) (kobs/[I], M^−1*s^−1) ([3]; 20 nM enzyme) [M⁻¹ s⁻¹] | SMILES |
| --- | --- | --- | --- | --- | --- | --- | --- | --- | --- | --- | --- |
| 5.51 | 7.52 |  | 5.53e-05 |  |  | 0.055 | 1010 |  |  |  | C=CC(=O)N1CC(N2CCC(c3cc(C#N)c4c(c3)Nc3nccc(N5CCOCC5)c3C(C)O4)CC2)C1 (stereo not shown) [Compound 352] |
| 5.11 | 7.24 |  |  |  |  |  |  |  |  | 2368.08 | C=CC(=O)N1CC(N2CC(c3cc4c(c(C(F)(F)F)n3)OCc3c(N5CCOCC5)ccnc3N4)C2)C1 [Compound 357] |
|  |  | 994.882 | 2.79e-05 | 2820 | 102 | 0.028 |  |  |  |  | C=CC(=O)N1CCC(N2CC(c3cc4c(c(C(F)(F)F)n3)OCc3c(N5CCOCC5)ccnc3N4)C2)CC1 [Compound 359] |
|  |  |  |  | > 10000 | 162 |  |  |  | 464 |  | CC#CC(=O)N1CCC(N2CC(c3cc4c(c(-c5ncc[nH]5)n3)OCc3c(N5CCOCC5)ccnc3N4)C2)CC1 [Compound 364] |
|  |  |  |  | 10700 | 209 |  |  |  | 339 |  | C=CC(=O)N1CCC(N2CC(c3cc4c(c(-c5ncc[nH]5)n3)OCc3c(N5CCOCC5)ccnc3N4)C2)CC1 [Compound 366] |
|  |  |  | 3.37e-05 | 10500 | 75.9 | 0.0482 | 698 |  |  |  | C=CC(=O)N1CC(N2CCC(c3cc4c(c(C)n3)OCc3c(N5CCOCC5)ccnc3N4)N(C)CC2)C1 (stereo not shown) [Compound 367] |
|  |  |  | 4.43e-05 | > 10000 | 191 | 0.103 | 429 |  |  |  | CC#CC(=O)N1CC(N2CC(c3cc4c(c(CCC)n3)OCc3c(N5CCOCC5)ccnc3N4)C2)C1 [Compound 368] |
|  |  |  | 1.66e-05 | > 10000 | 269 | 0.113 | 147 |  |  |  | CC#CC(=O)N1CC(N2CCC(c3cc4c(c(C)n3)OCc3c(N5CCOCC5)ccnc3N4)N(C)CC2)C1 (stereo not shown) [Compound 373] |
